Laboratory results published in patent US5696276A, “Process for preparing 5,8-dihydroxynaphthoquinone derivatives, novel 5,8-dihydroxynaphthoquinone derivatives and their use as anticancer agent” (Kuhnil Pharmaceutical Co., Ltd., priority 1993, dated 1997).
Converted amounts (≈) assume the structure as drawn.

Key:
A549 cancer cells = test: Cytotoxic activity against A549 cancer cells (sulforhodamin B method); format: cell-based; settings: Homo sapiens; A549 cells, SRB method, 48 hours; read-out: ED50, cytotoxic activity against A549
Experimental: The cytotoxic activity against A549 cancer cells was determined using a method for measuring sulforhodamin B (SRB), which was developed in the year 1989 by NIC for measuring anticancer activity of the drug in vitro. For the experiment, cells under subculturing were separated from the attached surface with trypsin-CDTA solution and then dispensed into a 24-well flat-bottom microplate (Falcon) so that the number of cells per well is 8×10^4 (A549). The microplate was incubated in a CO2 incubator for 24 hours to attach the dispensed cells to bottom. The medium was removed with aspirator. Then, 100 μl of the solution of the test compounds diluted in a log-dose of 6 kinds of concentration was added to each well containing cells, in a multiple of 3. The microplate was incubated for further 48 hours. In addition, the diluted solution of the test compounds above was filtered through a 0.22 μm filter, before addition to the cells, to keep the experiment under sterilized condition. The cells were incubated with the test compounds for 48 hours and then the medium was removed from each well. 100 μl of 10% trichloroacetic acid (TCA) was added to each well and then the plate was allowed to stand at 4° C. for one hour to fix the cells to the bottom of plate. After fixing the cells, the plate was washed 5 to 6 times with water to completely remove any remaining TCA solution and then dried at room temperature until water is no longer present. To the completely dried plate was added the dying solution of 0.4% SRB dissolved in 1% acetic acid in an amount of 250 μl per well to stain the cells for 30 minutes and then the plate was washed again 5 to 6 times with 1% acetic acid solution to remove the remaining SRB which is not bound to the cells. The stained cell plate was dried again at room temperature. Then, the dying solution was carefully dissolved in a certain amount of 10 mM Tris so that the O.D. value in the control group at 520 nm is 0.8-1.0 Å (optical density), and the optical density at 520nm was determined. The ED50 value was obtained from the determined optical density. To calculate the activity of the drug against cancer cells, the number of cells (Tz) at the beginning of the addition of drug, the number of cells (C) after incubation with the medium in the absence of drug for 48 hours and the number of cells (T) after incubation in the presence of drugs at each concentration for 48 hours were determined.
The anticancer activity of the test compounds was determined form the following equations. Specifically, in the […] the equation (T-Tz)/(C-Tz)×100 was used and in the case of Tz<T the equation (T-Tz)/Tz×100 was used. Then the IC50 value wich is the concentration of drug which inhibits the growth of cancer cells by 50% was calcualted from the above calculated values using a data regressive function of LOTUS programme and the cytotoxic activities of the test compounds were compared with each other.

K-562 cells = test: Cytotoxic activity against K-562 cells; format: cell-based; settings: Homo sapiens; K562 cells, 48 hours, 37° C.; read-out: ED50, cytotoxic activity against K562
Experimental: As in the test for the cytotoxic activity against L1210 cells, the test samples were dissoved in ethanol or dimethylsulfoxide in a certain concentration. 0.1 ml of the sample solution was mixed with 0.9 ml of a fresh medium to prepare the dilutions. To each two test tubes having a screw cap were added 100, 50, 25 μl, respectively, of the sample dilutions by means of a micropipet. To each test tube for the test group and the control group (2√n: n=number of the samples) was added 5 ml of the dilutions of HL-60 cells and K-562 cells which were cultured and activated before 24 hours from the beginning of experiment and then diluted in a concentration of 1×10^5 cells/mi. All test tubes were cultured for 48 hours in a CO2 incubator at 37° C. and then the number of cells was counted using a haemacytometer.
(§1) The ED50 value is defined as a concentration (μg/ml) of the sample which inhibits the growth of cancer cells by 50% of the control group and determined according to a method described in NIC's mannual (NIC=National Cancer Institue, U.S.A.). The growth rate Y(%) of cells in the presence of the test sample in each concentration was calculated according to the followign equation: […]
(§2) In the above equation, T means the average cell number per ml in the test group after incubation for 48 hours in the presence of the test samples in each concentration, C means the average cell number per ml in the control group after incubation for 48 hours, and Co means the average cell number per ml in the control group at the beginning of incubation. The Y(%) value at each concentration and log10 value of each concentration were obtained and the regression curve was constructed according to the following equation from those obtained values. In this case, when all the Y(%) value obtained at each concentration is greater than 55% or lower than 45%, the experiment was repeatedly conducted.
(§3) To construct the regression curve Y=A+BX the values A and B were obtained using the following equation. [formula]
(§4) In the above, the value N is the number of selected points which is greater than 2 and lower than, or identical with, the number of cencentration of the test sample, Xi is log(concentration) i, and Yi is the growth ratio at (concentration)i. The value of ED50 was obtained for those obtained slope and intercept.

S-180 sarcoma cells = test: Animal experiment using Sarcoma S-180 cells (survival of mouse); format: in vivo, male ICR mouse; settings: ip, S-180 ICR mouse, intraperitoneal, 7 to 8 injections; for responders at 10 µmol/kg / response vs control in vivo at 10 µmol/kg: daily dose 10 μmole (mg/kg/day given per compound)
Experimental: In this experiment, healthy male ICR mouse weighing 20 to 25 g were used as test animal and were fed with water and feed without any restriction in the chamber controlled at the temperature of 23° to 24° C. As the feed, the antibiotic-free feed for mouse was used.
S-180 cells which were incubated for 7 days within abdominal cavity of ICR mouse were separated together with ascites. To the separated cells was added sterilized cold physiological saline and the mixture was centrifuged with 400×g for 2 minutes to separate the cell precipitate. The separated cell precipitate was suspended again in sterilized cold physiological saline and then centrifuged to remove the supernatant. Only S-180 cells were taken, excluding any red bllod cells incorporated therein, washed three times with the same method as above, and then suspended to obtain the cell suspension in concentration of 10^7 cells/ml by counting the number of cells with a haemacytometer. Each 0.1 ml of this cell suspension was transplanted in an abdominal cavity.
After 24 hours from the transplantation, mouse were divided so that each group contains 8 to 9 mouse. The test sample was dissolved in a predetermined amount of dimethylsulfoxide to prepare the stock solution which was stored at 4° C. 30 μl of the stock solution was taken and then mixed with 1.5 ml of physiological saline. 0.1 ml of this mixture was intraperitoneally injected to the test animal. To the control group, 2% dimethylsulfoxide-physiological saline solution was injected. Meanwhile, doxorubicin which is used as the comparative drug was dissolved in 2% dimethylsulfoxide-physiological saline solution and then injected in an amount of 0.5 mg(titer)/kg. The schedule for injection comprises a total of 7 to 8 injections in the manner that after the transplantation of cancer cells 0.1 ml of the test sample per a day is administered for 2 to 4 days followed by the rest for one day. The survival rate was calculated on the basis of the date on which all of one control group is died (approximately 18 to 20 days). The survival rate (T/C, %) was calculated by the following equation as proposed in NIC's protocol: [formula]

L1210 cells = test: Cytotoxic activity against L1210 cells; format: cell-based; settings: Mus musculus; L1210 cells, 48 hours, 37° C.; read-out: ED50, cytotoxic activity against L1210
Experimental: To obtain L1210 cells in a logarithmic phase for cytotoxic activity test, in a 250 ml Erlenmeyer flask with a screw cap including Fisher medium warmed to 36° to 37° C. L1210 cells were adjusted to a concentration of 2-3×10^5 cells/ml and then cultured, before 24 hours from the beginning of experiment. Then, the culture solution thus obtained was suspended to prepare a L1210 cell suspension having a concentration of about 0.8-1.0×10^6 cells/ml. Test sample was dissoved in ethanol or dimethylsulfoxide in a certain concentration just before the experiment. 0.1 ml of the sample solution was diluted 10 times with 0.9 ml of a fresh medium. To each screw-capped test tube were added 100, 50, 25 μl, respectively, of the sample dilutions and then added 5 ml of the cell suspension (5×10^4 cells/ml) prepared above to use as the test group. To the test tubes for the control group (2√n: n=number of the samples), only 5 ml of the cell suspension was added. All test tubes were cultured for 48 hours in a CO2 incubator at 37° C. and then the number of cells was counted using a haemacytometer.
as §1, §2, §3, §4

[1] = 1200 h, read-out: Number of mouse survived for 50 days (converted)

Compound	IC50 (A549 cancer cells) [µg/mL]	IC50 (K-562 cells) [µg/mL]	responders at 10 µmol/kg (S-180 sarcoma cells; [1]) [%]	response vs control in vivo at 10 µmol/kg (S-180 sarcoma cells; read-out: T/C) [%]	IC50 (L1210 cells) [µg/mL]	responders at 5 µmol/kg (S-180 sarcoma cells; 1200 h, daily dose 5 μmole (mg/kg/day given per compound), read-out: Number of mouse survived for 50 days (converted)) [%]	response vs control in vivo at 5 µmol/kg (S-180 sarcoma cells; daily dose 5 μmole (mg/kg/day given per compound), read-out: T/C) [%]
CCCCCCCCCCCCC(O)C1=CC(=O)c2c(O)ccc(O)c2C1=O (stereo not drawn) [2-(1-hydroxytridecyl)-5,8-dihydroxy-1,4-naphthoquinone]	4.4 (≈ 11.3 µM)	0.4 (≈ 1.03 µM)	0	113	0.3 (≈ 0.772 µM)	–	–
CCOC(CCC(C)C)C1=CC(=O)c2c(O)ccc(O)c2C1=O (stereo not drawn) [2-(1-ethoxy-4-methylpentyl)-5,8-dihydroxy-1,4-naphthoquinone]	1.7 (≈ 5.34 µM)	0.08 (≈ 0.251 µM)	0	105	0.04 (≈ 0.126 µM)	–	–
CC(C)CCC(O)C1=CC(=O)c2c(O)ccc(O)c2C1=O (stereo not drawn) [2-(1-hydroxy-4-methylpentyl)-5,8-dihydroxy-1,4-naphthoquinone, reference compound]	0.9 (≈ 3.1 µM)	0.01 (≈ 0.0344 µM)	–	–	0.05 (≈ 0.172 µM)	0	120
COC(CCC(C)C)C1=CC(=O)c2c(O)ccc(O)c2C1=O (stereo not drawn) [2-(1-methoxy-4-methylpentyl)-5,8-dihydroxy-1,4-naphthoquinone]	1.5 (≈ 4.93 µM)	0.07 (≈ 0.23 µM)	0	126	0.05 (≈ 0.164 µM)	–	–
CC/C=C/CC(=O)OC(CCCCC)C1=CC(=O)c2c(O)ccc(O)c2C1=O (stereo not drawn) [2-[1-(3-trans-hexenoyloxy)-hexyl]-5,8-dihydroxy-1,4-naphthoquinone]	1.5 (≈ 3.88 µM)	0.2 (≈ 0.518 µM)	0	105	0.2 (≈ 0.518 µM)	–	–
CCCCCC(=O)OC(CCCCC)C1=CC(=O)c2c(O)ccc(O)c2C1=O (stereo not drawn) [2-(1-hexanoyloxyhexyl)-5,8-dihydroxy-1,4-naphthoquinone]	0.3 (≈ 0.772 µM)	0.2 (≈ 0.515 µM)	0	151	0.1 (≈ 0.257 µM)	–	–
